From ChEMBL document CHEMBL1146982, “Alpha-methylated derivatives of 2-arachidonoyl glycerol: synthesis, CB1 receptor activity, and enzymatic stability” (Bioorg Med Chem Lett, 2006)
Activity calls are given as the source filed them. No cut-off for these calls is given here.

Legend:
Format in all cases: functional, tissue-based
[1] = target: Cannabinoid receptor 1 (Rattus norvegicus) (UniProt P20272); assay: Efficacy at CB1 receptor in rat brain by [35S]GTPgammaS binding assay (basal value set at 100%)
Sequence of Cannabinoid receptor 1 (Rattus norvegicus) (P20272 whole entry): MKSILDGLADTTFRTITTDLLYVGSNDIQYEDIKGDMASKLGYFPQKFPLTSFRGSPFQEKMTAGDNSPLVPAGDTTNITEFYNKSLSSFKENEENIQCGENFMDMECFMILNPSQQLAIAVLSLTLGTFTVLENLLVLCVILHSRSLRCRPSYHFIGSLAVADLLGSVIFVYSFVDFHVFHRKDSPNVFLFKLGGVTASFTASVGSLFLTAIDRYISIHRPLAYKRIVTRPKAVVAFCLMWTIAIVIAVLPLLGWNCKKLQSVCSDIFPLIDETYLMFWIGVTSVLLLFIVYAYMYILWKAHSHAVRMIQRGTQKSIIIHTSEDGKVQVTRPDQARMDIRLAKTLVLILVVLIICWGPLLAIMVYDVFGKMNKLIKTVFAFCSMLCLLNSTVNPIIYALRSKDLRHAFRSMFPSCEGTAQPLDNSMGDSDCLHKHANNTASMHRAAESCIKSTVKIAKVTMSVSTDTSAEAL

Cannabinoid receptor 1 = Cannabinoid receptor 1 (Rattus norvegicus, UniProt P20272); assay: Potency at CB1 receptor in rat brain by [35S]GTP-gamma-S binding assay
Sequence of Cannabinoid receptor 1 (P20272 whole entry): as above

[2] = target: Cannabinoid receptor 1 (Rattus norvegicus) (UniProt P20272); assay: Potency at CB1 receptor in rat brain by [35S]GTP-gamma-S binding assay at 0.1 mM
[3] = target: Cannabinoid receptor 1 (Rattus norvegicus) (UniProt P20272); assay: Efficacy at CB1 receptor in rat brain by [35S]GTP-gamma-S binding assay at 0.1 mM (basal value set at 100%)

| SMILES | Emax [1] [%] | EC50 (Cannabinoid receptor 1) [µM] | Log EC50 [2] | Emax [3] |
| --- | --- | --- | --- | --- |
| CCCCC/C=C\C/C=C\C/C=C\C/C=C\CCCC(=O)OC(CO)CO | 620 | – | – | – |
| CCCCC/C=C\C/C=C\C/C=C\C/C=C\CC[C@@H](C)C(=O)OC(CO)CF (mixture of isomers) | 168 | 15.8 | – | – |
| CCCCC/C=C\C/C=C\C/C=C\C/C=C\CC[C@H](C)C(=O)OC(CO)CO | 227 | 15.8 | – | – |
| CCCCC/C=C\C/C=C\C/C=C\C/C=C\CC[C@@H](C)C(=O)OC(CO)CO | 407 | 10 | – | – |
| CCCCC/C=C\C/C=C\C/C=C\C/C=C\CC[C@@H](C)C(=O)OC(CF)CF | – | – | inactive | inactive |
